Among the data in ChEMBL document CHEMBL1151844, “Flavonoid glucosides from the hairy roots of Catharanthus roseus” (J Nat Prod, 2009) are Activity values, retold here.

For data set [1], the system named is THP-1. As to the kind of experiment: Cytotoxicity against LPS-stimulated human THP1 cells assessed as cell viability at 29.0 uM pretreated 2 hrs before LPS-challenge measured after 24 hrs by MTS assay. The note with it: thp-1, 24 h. It counts as cell-based. Background: Tetrazolium dyes change colour on reduction, which living cells bring about.
For data set [2], the system named is THP-1. As to the kind of experiment: Antiinflammatory activity against human THP1 cells assessed as inhibition of LPS-induced MMP9 expression pretreated 2 hrs before LPS challenge measured after 24 hrs by SDS-PAGE. It counts as functional, cell-based.
The next data set has as its system Ca-Ski. Briefly: Cytotoxicity against human CaSki cells by. It counts as functional, cell-based.
In another data set the test system is A549. Briefly: Cytotoxicity against human A549 cells. It counts as functional, cell-based.
Data set [3] relates to THP-1. Briefly: Antiinflammatory activity against human THP1 cells assessed as inhibition of LPS-induced TNFalpha release at 7.3 to 29.0 uM pretreated 2 hrs before LPS challenge measured after 24 hrs by ELISA. It counts as functional, cell-based.
The subject of a further data set is DLD2. As to the kind of experiment: Cytotoxicity against human DLD2 cells. It counts as functional, cell-based.
The next data set relates to MCF7. Briefly: Cytotoxicity against human MCF7 cells. It counts as functional, cell-based.
The subject of data set [4] is THP-1. As to the kind of experiment: Cytotoxicity against LPS-stimulated human THP1 cells assessed as cell viability at 25.9 uM pretreated 2 hrs before LPS-challenge measured after 24 hrs by MTS assay. It counts as cell-based. The settings on record: thp-1, 24 h.
For data set [5], the system named is THP-1. Briefly: Antiinflammatory activity against human THP1 cells assessed as inhibition of LPS-induced TNFalpha release at 6.5 to 25.9 uM pretreated 2 hrs before LPS challenge measured after 24 hrs by ELISA. It counts as functional, cell-based. For orientation: In an ELISA, binding on a coated surface is turned into a signal by an enzyme label.
In data set [6] the test system is THP-1. Briefly: Cytotoxicity against LPS-stimulated human THP1 cells assessed as cell viability at 26.9 uM pretreated 2 hrs before LPS-challenge measured after 24 hrs by MTS assay. It counts as cell-based. The settings on record: thp-1, 24 h.
The subject of data set [7] is THP-1. As to the kind of experiment: Antiinflammatory activity against human THP1 cells assessed as inhibition of LPS-induced TNFalpha release at 6.7 to 26.9 uM pretreated 2 hrs before LPS challenge measured after 24 hrs by ELISA. It counts as functional, cell-based.
Data set [8] deals with THP-1. As to the kind of experiment: Antiinflammatory activity against human THP1 cells assessed as inhibition of LPS-induced TNFalpha release at 7.3 to 29.4 uM pretreated 2 hrs before LPS challenge measured after 24 hrs by ELISA. It counts as functional, cell-based.
The subject of data set [9] is THP-1. Briefly: Cytotoxicity against LPS-stimulated human THP1 cells assessed as cell viability at 29.4 uM pretreated 2 hrs before LPS-challenge measured after 24 hrs by MTS assay. It counts as cell-based. The settings on record: thp-1, 24 h.

Calls of active or inactive are those of the source. No cut-off for these calls is given here.

In the case of `COc1ccc([C@H]2CC(=O)c3ccc(O[C@@H]4O[C@H](COC(=O)CC(C)CCCC(CO)CCCC(C)C)[C@@H](O)[C@H](O)[C@H]4O)cc3O2)cc1OC` (stereo partly drawn), the Activity entry with THP-1 [1] is “Non-toxic”; in the data set on THP-1 [2], “Dose-dependent effect”; in the data set with Ca-Ski it was “Not toxic”; with A549 it was “Not toxic”; with DLD2 it was “Not toxic”; in the data set with MCF7, “Not toxic”. Besides, in the data set on THP-1 [3], the result was Active.
With `C/C=C(\C)C(CCC(C)CCCC(C)CCCC(C)C)O[C@H]1[C@H](O)[C@@H](O)[C@H](Oc2cc(O)c3c(=O)c(O)c(-c4ccc(OC)c(OC)c4)oc3c2)O[C@@H]1CO` (stereo partly drawn), the Activity entry in the data set on THP-1 [4] was “Non-toxic”; with THP-1 [2] it was “Dose-dependent effect”; with Ca-Ski, “Not toxic”; in the data set with A549, “Not toxic”; with DLD2, “Not toxic”; in the data set with MCF7, “Not toxic”. The result in the data set on THP-1 [5] was Active.
In the case of `CCC(C)C(CCC(C)CCCC(C)CCCC(C)C)O[C@H]1[C@H](O)[C@@H](O)[C@H](Oc2c(-c3ccc(OC)cc3)oc3cc(O)cc(O)c3c2=O)O[C@@H]1CO` (stereo partly drawn), the Activity entry in the data set on THP-1 [2] is “Dose-dependent effect”; with THP-1 [6], “Non-toxic”; with Ca-Ski it was “Not toxic”; in the data set on A549 it was “Not toxic”; in the data set on DLD2, “Not toxic”; in the data set with MCF7, “Not toxic”. Moreover, the outcome in the data set on THP-1 [7] was Active.
Consider `C=C(CCC=C(C)C)CC/C=C(\C)CC(=O)OC[C@H]1O[C@@H](Oc2ccc3c(c2)O[C@@H](c2ccc(OC)c(OC)c2)CC3=O)[C@H](O)[C@@H](O)[C@@H]1O`, for which the Activity entry with THP-1 [2] is “Dose-dependent effect”; with Ca-Ski, “Not toxic”; in the data set with A549, “Not toxic”; with THP-1 [9], “Non-toxic”; in the data set on DLD2, “Not toxic”; in the data set with MCF7, “Not toxic”. For the same molecule, the outcome in the data set on THP-1 [8] was Active.
